Test results as given in patent publication US20230124862A1, “BISMUTH THIOL COMPOUNDS AND COMPOSITIONS AND METHODS OF TREATING MICROBIAL CO-INFECTIONS” (Microbion Corporation, priority 2020, published 2023).
Converted amounts (≈) assume the structure as drawn. Read-outs that look alike come from different tables or passages of the source.

Columns and labels:
[1] = system: RNA synthesis in E. coli MMX 121 (K12 tolC mutant); type: cell-based, Escherichia coli; details: 8X the MIC
E. coli ATCC 25922 = test: Broth microdilution MIC (Example 16)
[2] = system: RNA synthesis in E. coli ATCC 25922; type: cell-based, Escherichia coli; details: 8X the MIC
[3] = system: DNA synthesis in E. coli ATCC 25922; details: 16X the MIC
[4] = system: Burkholderia cepacia complex; test: Checkerboard FIC/FICI assay; type: cell-based, Burkholderia spp.; details: during FIC testing
Escherichia coli = test: Broth microdilution MIC (Example 12); type: cell-based
Achromobacter spp. = test: MIC testing of CF isolates; type: cell-based
Klebsiella pneumoniae = test: Broth microdilution MIC (Example 12); type: cell-based
P. aeruginosa [5] = details: P. aeruginosa isolate 103; CLSI QC range in parenthesis; cited from earlier work
M. abscessus complex = test: MIC testing of CF isolates; type: cell-based, Mycobacterium abscessus
B. cepacia = test: MIC testing of CF isolates; type: cell-based, Burkholderia cepacia; details: B. cepacia (B. cepacia complex) (BC17)
Pseudomonas aeruginosa [6] = test: Broth microdilution MIC (Example 12); type: cell-based
B. cenocepacia = test: MIC testing of CF isolates; type: cell-based, Burkholderia cenocepacia
Acinetobacter baumannii = test: Broth microdilution MIC (Example 12); type: cell-based
B. multivorans = test: MIC testing of CF isolates; type: cell-based, Burkholderia multivorans; details: B. multivorans (B. cepacia complex) (BC5b)
[7] = system: Burkholderia cepacia complex; type: cell-based, Burkholderia spp.; details: initial MIC testing
Pseudomonas aeruginosa [8] = details: P. aeruginosa ATCC 27853; CLSI established QC range; cited from earlier work
P. aeruginosa [9] = details: P. aeruginosa isolate 103; CLSI QC range in parenthesis; cited from earlier work; remark: listed apart in the source
S. maltophilia = test: MIC testing of CF isolates; type: cell-based, Stenotrophomonas maltophilia; details: S. maltophilia (SM21)
P. aeruginosa [10] = test: MIC testing of CF isolates and control strain
[11] = system: lipid synthesis in E. coli ATCC 25922; test: Macromolecular synthesis assay: lipid synthesis ([3H] glycerol); type: cell-based, Escherichia coli; details: control drug, concentration not given
Experimental: Chloroform (125 μL) was then added to each reaction and vortexed, followed by the addition of 125 μl dH2O and vortexing. Reactions were centrifuged at 13,000 rpm in a microfuge for 10 min, and then 150 μl of the organic phase was transferred to a scintillation vial and allowed to dry in a fume hood for at least 1 hr.

## CO[C@H]1/C=C/O[C@@]2(C)Oc3c(C)c(O)c4c(O)c(c(/C=N/N5CCN(C)CC5)c(O)c4c3C2=O)NC(=O)/C(C)=C\C=C\[C@H](C)[C@H](O)[C@@H](C)[C@@H](O)[C@@H](C)[C@H](OC(C)=O)[C@@H]1C [rifampicin]
[1]
  inhibition of RNA synthesis: 91.9%
E. coli ATCC 25922; Escherichia coli, ATCC25922
  MIC: 8 µg/mL (≈ 9.72 µM)
E. coli ATCC 25922; Escherichia coli, ATCC25922, E. coli ATCC 25922, inoculum 1
  MIC: 8 µg/mL (≈ 9.72 µM)
E. coli ATCC 25922; Escherichia coli, ATCC25922, E. coli ATCC 25922, inoculum 2
  MIC: 8 µg/mL (≈ 9.72 µM)
[2]; initial assay
  inhibition of RNA synthesis: 88.5%
[2]; repeat assay
  inhibition of RNA synthesis: 89.4%

## O=C(O)c1cn(C2CC2)c2cc(N3CCNCC3)c(F)cc2c1=O [ciprofloxacin]
[3]
  inhibition of DNA synthesis: 89.6%

## NCC[C@H](O)C(=O)N[C@@H]1C[C@H](N)[C@@H](O[C@H]2O[C@H](CN)[C@@H](O)[C@H](O)[C@H]2O)[C@H](O)[C@H]1O[C@H]1O[C@H](CO)[C@@H](O)[C@H](N)[C@H]1O [AMK]
[4]; B. cepacia isolate 0546
  MIC: […]
[4]; B. cepacia isolate 1793
  MIC: […]
Escherichia coli; E. coli ATCC 25922, ATCC QC organism (Table 102)
  MIC: 1 µg/mL (≈ 1.71 µM)
Escherichia coli; E. coli ATCC 35218, ATCC QC organism (Table 102)
  MIC: 1 µg/mL (≈ 1.71 µM)
Escherichia coli; E. coli ATCC 35218, ESBL
  MIC: 1 µg/mL (≈ 1.71 µM)
Escherichia coli; E. coli ATCC BAA-2471, NDM
  MIC: […]
Escherichia coli; E. coli CDC 114, ESBL/KPC
  MIC: 1 µg/mL (≈ 1.71 µM)
Escherichia coli; E. coli CDC 118, ESBL/NDM
  MIC: […]
Escherichia coli; E. coli CDC 435, NDM
  MIC: […]
Escherichia coli; E. coli CDC 451, KPC
  MIC: 4 µg/mL (≈ 6.83 µM)
Escherichia coli; E. coli CDC 503, ESBL/NDM
  MIC: […]
Escherichia coli; E. coli MMX 5745, KPC
  MIC: […]
Escherichia coli; E. coli MMX 5755, ESBL
  MIC: […]
Escherichia coli; E. coli MMX 5756, ESBL
  MIC: […]
Escherichia coli; E. coli MMX 5758, ESBL
  MIC: 1 µg/mL (≈ 1.71 µM)
Achromobacter spp.; A. xylosoxidans (AX4)
  MIC: […]
Achromobacter spp.; Achromobacter spp. (AX1)
  MIC: […]
Klebsiella pneumoniae; K. pneumoniae ATCC BAA-1705, ATCC QC organism (Table 102)
  MIC: […]
Klebsiella pneumoniae; K. pneumoniae ATCC BAA-1705, ESBL/KPC
  MIC: […]
Klebsiella pneumoniae; K. pneumoniae CDC 112, KPC
  MIC: […]
Klebsiella pneumoniae; K. pneumoniae CDC 113, ESBL/KPC
  MIC: […]
Klebsiella pneumoniae; K. pneumoniae CDC 115, ESBL/KPC
  MIC: […]
Klebsiella pneumoniae; K. pneumoniae CDC 120, ESBL/KPC
  MIC: […]
Klebsiella pneumoniae; K. pneumoniae CDC 126, ESBL/KPC
  MIC: […]
Klebsiella pneumoniae; K. pneumoniae CDC 129, ESBL/KPC
  MIC: […]
Klebsiella pneumoniae; K. pneumoniae CDC 135, ESBL/VIM
  MIC: […]
Klebsiella pneumoniae; K. pneumoniae CDC 138, ESBL/NDM
  MIC: […]
Klebsiella pneumoniae; K. pneumoniae CDC 158, ESBL/NDM/OXA
  MIC: […]
Klebsiella pneumoniae; K. pneumoniae MMX 9029, ESBL
  MIC: […]
P. aeruginosa [5]
  CLSI QC range of MIC: (1-4) μg/mL
M. abscessus complex; M. abscessus/massiliense complex (AMT0068-40)
  MIC: […]
M. abscessus complex; M. abscessus/massiliense complex (AMT0119-7)
  MIC: […]
M. abscessus complex; M. abscessus/massiliense complex (AMT0493-2), AMK R
  MIC: […]
M. abscessus complex; M. abscessus/massiliense complex (AMT01130-8)
  MIC: […]
M. abscessus complex; M. abscessus/massiliense complex (AMT1539)
  MIC: […]
M. abscessus complex; M. abscessus/massiliense complex (ATCL119977), Macrolide R (inducible)
  MIC: […]
B. cepacia
  MIC: […]
Pseudomonas aeruginosa [6]; P. aeruginosa ATCC 27853, ATCC QC organism (Table 102)
  MIC: […]
Pseudomonas aeruginosa [6]; P. aeruginosa CDC 230, VIM/OXA
  MIC: […]
Pseudomonas aeruginosa [6]; P. aeruginosa CDC 231, KPC/OXA
  MIC: […]
Pseudomonas aeruginosa [6]; P. aeruginosa CDC 241, IMP/OXA
  MIC: […]
Pseudomonas aeruginosa [6]; P. aeruginosa CDC 246, NDM/OXA
  MIC: […]
Pseudomonas aeruginosa [6]; P. aeruginosa CDC 250, NDM/OXA
  MIC: […]
Pseudomonas aeruginosa [6]; P. aeruginosa CDC 356, KPC
  MIC: […]
Pseudomonas aeruginosa [6]; P. aeruginosa CDC 439, IMP
  MIC: […]
Pseudomonas aeruginosa [6]; P. aeruginosa CDC 444, VIM
  MIC: […]
Pseudomonas aeruginosa [6]; P. aeruginosa CDC 457, VIM
  MIC: […]
Pseudomonas aeruginosa [6]; P. aeruginosa CDC 516, KPC/AmpC
  MIC: […]
Pseudomonas aeruginosa [6]; P. aeruginosa CDC 518, KPC/AmpC
  MIC: […]
B. cenocepacia; B. cenocepacia (B. cepacia complex) (AU197)
  MIC: […]
B. cenocepacia; B. cenocepacia (B. cepacia complex) (BC15)
  MIC: […]
Acinetobacter baumannii; A. baumannii CDC 273, ESBL/OXA
  MIC: […]
Acinetobacter baumannii; A. baumannii CDC 274, ESBL/OXA
  MIC: […]
Acinetobacter baumannii; A. baumannii CDC 275, ESBL/OXA
  MIC: […]
Acinetobacter baumannii; A. baumannii CDC 277, ESBL/OXA
  MIC: […]
Acinetobacter baumannii; A. baumannii CDC 284, ESBL/OXA
  MIC: […]
Acinetobacter baumannii; A. baumannii CDC 307, OXA
  MIC: […]
Acinetobacter baumannii; A. baumannii CDC 308, ESBL/OXA
  MIC: […]
Acinetobacter baumannii; A. baumannii CDC 311, OXA
  MIC: […]
Acinetobacter baumannii; A. baumannii CDC 312, OXA
  MIC: 1 µg/mL (≈ 1.71 µM)
Acinetobacter baumannii; A. baumannii CDC 313, ESBL/OXA
  MIC: 4 µg/mL (≈ 6.83 µM)
Acinetobacter baumannii; A. baumannii NCTC 13304, OXA
  MIC: […]
B. multivorans
  MIC: […]
[7]; B. cenocepacia isolate 0548 (CIP-R)
  MIC: 256 µg/mL (≈ 437 µM)
[7]; B. cenocepacia isolate 1631
  MIC: 256 µg/mL (≈ 437 µM)
[7]; B. cenocepacia isolate 1783
  MIC: 256 µg/mL (≈ 437 µM)
[7]; B. cenocepacia isolate 8555
  MIC: 256 µg/mL (≈ 437 µM)
[7]; B. cepacia isolate 0546
  MIC: […]
[7]; B. cepacia isolate 1793
  MIC: […]
[7]; B. cepacia isolate 9040
  MIC: […]
[7]; B. multivorans isolate 5665 (CIP-I)
  MIC: 256 µg/mL (≈ 437 µM)
[7]; B. multivorans isolate 8952 (CIP-I)
  MIC: […]
Pseudomonas aeruginosa [8]
  QC range of MIC: (1-4) μg/mL
P. aeruginosa [9]
  CLSI QC range of MIC: (1-4) μg/mL
S. maltophilia
  MIC: […]
P. aeruginosa [10]
  MIC: […]
P. aeruginosa [10]; P. aeruginosa (AGR1), CF isolate
  MIC: […]

## Oc1cc(Cl)ccc1Oc1ccc(Cl)cc1Cl [irgasan]
[11]
  inhibition of lipid synthesis: 63.1%
E. coli ATCC 25922; E. coli ATCC 25922, inoculum 1
  MIC: 0.12 µg/mL (≈ 0.414 µM)
E. coli ATCC 25922; E. coli ATCC 25922, inoculum 2
  MIC: 0.12 µg/mL (≈ 0.414 µM)
E. coli ATCC 25922; E. coli ATCC 25922, inoculum 3
  MIC: 0.12 µg/mL (≈ 0.414 µM)
